Laboratory results as given in patent US20250160318A1, “CRYOPRESERVATION SOLUTION AND USE THEREOF IN REDUCING ISCHEMIA-REPERFUSION INJURY (IRI) OF CELL, TISSUE, OR ORGAN” (Third Affiliated Hospital, Sun Yat-sen University, priority 2023, published 2025).

Legend:
hUC-MSCs [1] = assay: Immediate cell survival rate of hUC-MSCs by trypan blue counting after 72 h cryopreservation at 4° C.; format: cell-based, human; conditions: metabolite added to Hibernate-A basic cryopreservation solution, FIG. 3
From the text: (§1) Cells used in this experiment were: hUC-MSCs (donated umbilical cord tissues from the Biotherapy Center of the Third Affiliated Hospital of Sun Yat-sen University and newborns).
(§2) The number of cells used in this experiment was: 1×10^6 cells.
(§3) The basic cryopreservation solution used in this experiment was Hibernate™-A medium (Thermofisher, catalog number: GIBCO A1247501), and the components were shown in Table 1.
(§4) The experimental groups of this example included: Hibernate™-A, Hibernate™-A+TUDCA, Hibernate™-A+QCA, and Hibernate™-A+Phosphocholine.
(§5) The experimental operation of this example included: 1 mL of the resuspended hUC-MSCs cells in Hibernate™-A basic cryopreservation solution with the above-mentioned specified metabolites added were placed in a 5 mL EP tube, allowed to stand at room temperature for 20 min, and then placed in a 4° C. refrigerator shaker for slow shaking to allow cryopreservation for 72 h. After cryopreservation for 72 h, the cells were centrifuged and counted with trypan blue to calculate the cell survival rate, and then plated on a 96-well plates for CCK8 cell proliferation assay. The remaining cells were continued to be plated on a 6-well plate and placed in a 37° C. cell culture incubator to observe the subsequent cell status.

hUC-MSCs [2] = assay: Culture of hUC-MSCs plated after 72 h cryopreservation (cell status by light microscopy, cell number after 3 days); format: cell-based, human; conditions: hUC-MSCs after 72 h cryopreservation in Hibernate-A plus metabolite, 37° C., FIG. 3
From the text: as §1, §2, §3, §4, §5

rat liver = assay: Static cold storage and rewarming/reperfusion of isolated rat liver (H&E sectioning, TUNEL staining); conditions: phosphocholine supplemented during rewarming/reperfusion, 4° C. 48 h, perfused 37° C. 2 h, FIGS. 8A-8C
Procedure: 2-3 month old male/female SD rats or 2-3 month old golden hamsters were fasted overnight and anesthetized by inhalation of isoflurane, and then given 50 IU of heparin. The bile duct was cannulated with a PE-10 catheter, and the portal vein was cannulated with a 22-G Introcan catheter. The liver was washed with physiological saline, UW, or UW supplemented with phosphocholine (50 μM) and collected. A perfusion system was established in a circulation mode, and 250 mL of a Krebs-Henseleit (KH) bicarbonate buffer or KH buffer supplemented with phosphocholine (500 μM) was prepared. Oxygenation was conducted in a mixed gas of 95% O2 and 5% CO2 through a fiber oxygenator to a partial pressure of oxygen exceeding 500 mmHg. The liver was stored at 4° C. for 48 h, equilibrated at room temperature for 10 min, and perfused at 37° C. for 2 h. A flow rate was set in pressure control mode, and a portal vein pressure (PVP) was kept constant at 12 mmHg. The flow rate and PVP were automatically monitored and recorded. The portal vein resistance (PVR) was calculated as follows: PVR (mmHg/mL×min×g liver)=PVP (12 mmHg)/portal vein flow rate (mLxminxg liver). Liver samples were fixated in 4% paraformaldehyde for subsequent H&E sectioning and TUNEL staining. […]

Hepatocytes = assay: Cryopreservation and rewarming of hepatocytes (MitoNeoD mitochondrial ROS, real-time imaging of cell membrane integrity); format: cell-based; conditions: UW solution with 50 μM phosphocholine, 4° C. 12 h, rewarming medium with 500 μM phosphocholine, 37° C. 2 h, FIGS. 7A-7B
Procedure: Hepatocytes cultured under normal conditions served as a 37° C. control. For cold exposure treatment, the medium was replaced with UW solution at room temperature for 15 min, and the cells in UW solution (containing 50 μM phosphocholine) were transferred to a 4° C. refrigerator for 12 h. Rewarming involved taking cells out of the refrigerator and culturing with a pre-chilled medium (containing 500 μM phosphocholine). After allowing to stand for 15 min at room temperature, the cells were transferred to a 37° C. incubator for 2 h. The integrity of cell membranes is dynamically monitored by Real-time imaging using MitoNeoD live cell dye to assess the mitochondrial ROS and transfection of a plasmid carrying the mNeonGreen tag and the phospholipase Cδ PH domain.

Compound	immediate cell survival rate versus basic cryopreservation solution control (hUC-MSCs [1])	total number of cells obtained after being plated and cultured for 3 days versus basic cryopreservation solution control (hUC-MSCs [2])	cell apoptosis versus control group (TUNEL staining) (rat liver)	sinus cavity (H&E sections) (rat liver)	ROS in hepatocyte mitochondria (Hepatocytes; MitoNeoD)	integrity of hepatocyte membrane (Hepatocytes; mNeonGreen-PLCδ PH domain imaging)
O=C(O)c1ccnc2ccccc12 [QCA, quinoline-4-carboxylic acid]	slightly lower	significantly more				
C[C@H](CCC(=O)NCCS(=O)(=O)[O-])[C@H]1CC[C@H]2[C@@H]3[C@@H](O)C[C@@H]4C[C@H](O)CC[C@]4(C)[C@H]3CC[C@]12C.[Na+] [TUDCA, sodium tauroursodeoxycholate]	significantly higher	significantly more				
C[N+](C)(C)CCOP(=O)([O-])O [phosphocholine]	slightly lower	significantly more	milder	apparently normal	reduce	maintain the integrity
